US11401264B2, “Heterocyclic compound” (Orizuru Therapeutics, Inc., priority 2018, dated 2022)

Tested on: cardiomyocytes from double knock-in human iPS cell lines (mCherry at TNNI3 locus)
Assay: Experimental Example 1: mCherry (TNNI3 reporter) immunostaining measured by high contents screening
Type: cell-based
Set-up: key to average fluorescent intensity (at 30 μM): —: The symbol in Table 2 means that the average fluorescent intensity cannot be evaluated due to cell decrease
Conditions: read on 8th day, Alexa 647 anti-mCherry, control well 797; for average fluorescent intensity (at 1 μM): test compound 1 μM added on 3rd and 6th culture days; for average fluorescent intensity (at 30 μM): test compound 30 μM added on 3rd and 6th culture days
Procedure: For detection of cardiomyocyte maturation, double knock-in human iPS cell lines, in which reporter protein sequences, EmGFP (Sequence Number 1) and mCherry (Sequence Number 2) were inserted into gene loci for TNNI1 and TNNI3, respectively, were prepared (the human iPS cells were prepared from episomal vector (loaded gene; OCT3/4, KLF4, SOX2, L-MYC, LIN28, mouse p53DD) using PBMC (LP_167, Sample ID: 20130318) purchased from CTL (reference literature; Okita K, et al. Stem Cells. 2012 Nov. 29. doi: 10.1002/stem.1293)).
The maintenance culture of the above-mentioned reporter iPS cell lines was carried out by a conventional method (Okita K, et al. Stem Cells. 2012 Nov. 29. doi: 10.1002/stem.1293).
For differentiation induction into cardiomyocytes, the reporter iPS cell lines were treated with 0.5×TrypLE select (Life Technologies, diluted in 1/2 with 0.5 mM EDTA/PBS) for 4 to 5 minutes, and the cells were exfoliated using a cell scraper (IWAKI), and then dissociated into the single cell by pipetting. The medium was removed by centrifugation (1,000 rpm, 5 min), and the obtained cells were seeded on a bioreactor (ABLE) by 1×10^7 cells per 30 mL of the bioreactor, and then cultured in a medium prepared by adding 1% L-glutamine, transferrin 150 μg/mL, ascorbic acid 50 μg/mL (Sigma), monothioglycerol 4×10^−4 M, 10 μM Rock inhibitor (Y-27632), 2 ng/mL BMP4 (R&D) and 0.5% Matrigel (Growth Factor Reduced) to a medium after removal of solution C from StemFit AK02 (AJINOMOTO AK02, 400 mL of solution A and 100 mL of B solution, total 500 mL), at 37° C., under 5% oxygen condition (55 rpm, stirred suspension culture method) to form embryoid bodies (0 day).
Next day (1st day), 9 μL (final concentration 3 ng/mL) of 10 μg/mL activin A, 15 μL (final concentration 5 ng/mL) of 10 μg/mL bFGF and […] (final concentration 10 ng/mL) of 10 μg/mL BMP4 were added to the bioreactor, and the cells were cultured at 37° C. for additional 2 days, under 5% oxygen condition.
Then (3rd day), the obtained embryoid bodies were collected in a 50 mL centrifuge tube, and then subjected to centrifugation (200 g, 1 min). The medium was removed, and the embryoid bodies were cultured in a medium prepared by adding 1% L-glutamine, transferrin 150 μg/mL, ascorbic acid 50 μg/mL (Sigma), monothioglycerol 4×10^−4 M, 10 ng/mL VEGF, 1 μM IWP-3, 0.6 μM dorsomorphin and 5.4 μM SB431542 to a medium after removal of solution C from StemFit AK02 (AJINOMOTO AK02, 400 mL of solution A and 100 mL of B solution, total 500 mL), at 37° C. for 3 days, under 5% oxygen condition (55 rpm, stirred suspension culture method).
Then (6th day), the bioreactor was left to stand to precipitate the embryoid bodies, and 80 to 90% of the medium was removed. A medium prepared by adding 1% L-glutamine, transferrin 150 μg/mL, ascorbic acid 50 μg/mL (Sigma), monothioglycerol […] and 5 ng/mL VEGF to a medium after removal of solution C from StemFit AK02 (AJINOMOTO AK02, 400 mL of solution A and 100 mL of B solution, total 500 mL) was added to the bioreactor so that the total volume became 30 mL, and the embryoid bodies were cultured for 8 days, at 37° C., under 5% oxygen condition (55 rpm, stirred suspension culture method). During the culture, the medium was replaced with a medium under the same conditions every 2 to 3 days.
14th Day after the start of the differentiation induction, the embryoid bodies were treated with 2 mg/mL collagenase type I (Sigma) for 2 hr, and then with 0.25% trypsin/EDTA (Invitrogen) for 10 min. 50% FBS/IMDM (Thermo Fisher Science) was added thereto, and the embryoid bodies were dissociated into the single cell by pipetting, and then subjected to centrifugation (1,000 rpm, 5 minutes). […]

SMILES | average fluorescent intensity (at 1 μM) | average fluorescent intensity (at 30 μM)
CC(C)Oc1ccc(-c2nc3cc(N4Cc5cc(N6CCCCC6)ccc5C4=O)ccc3[nH]2)cc1 [Example 48, 2-(2-(4-isopropoxyphenyl)-1H-benzimidazol-5-yl)-5-(piperidin-1-yl)isoindolin-1-one] | 1182 | 1408
O=C1c2ccc(N3CCOCC3)cc2CN1c1ccc2[nH]c(-c3ccc(O)cc3)nc2c1 [Example 53, 2-(2-(4-hydroxyphenyl)-1H-benzimidazol-5-yl)-5-(morpholin-4-yl)isoindolin-1-one] | 880 | 2812
O=C1c2ccc(N3CCCCC3)cc2CN1c1ccc2[nH]c(-c3ccccn3)nc2c1 [Example 47, 5-(piperidin-1-yl)-2-(2-(pyridin-2-yl)-1H-benzimidazol-5-yl)isoindolin-1-one] | 1115 | 1348
CN(CCc1ccccc1)C(=O)CNC(=O)COc1ccc(-c2nc3cc(N4Cc5cc(N6CCCCC6)ccc5C4=O)ccc3[nH]2)cc1 [Example 11, N-methyl-N^~2^~-((4-(5-(1-oxo-5-(piperidin-1-yl)-1,3-dihydro-2H-isoindol-2-yl)-1H-benzimidazol-2-yl)phenoxy)acetyl)-N-(2-phenylethyl)glycinamide] | 1182 | —
COc1ccc(-c2nc3cc(N4Cc5cc(N6CCOCC6)ccc5C4=O)ccc3[nH]2)cc1 [Example 69, 2-(2-(4-methoxyphenyl)-1H-benzimidazol-5-yl)-5-(morpholin-4-yl)isoindolin-1-one] | 1222 | 1942
O=C(COc1ccc(-c2nc3cc(N4Cc5cc(N6CCCCC6)ccc5C4=O)ccc3[nH]2)cc1)N1CCS(=O)(=O)C1 [Example 16] | 1366 | 3604
Cc1ccc(NC(=O)COc2ccc(-c3nc4cc(N5Cc6cc(N7CCCCC7)ccc6C5=O)ccc4[nH]3)cc2)cc1 [Example 22, N-(4-methylphenyl)-2-(4-(5-(1-oxo-5-(piperidin-1-yl)-1,3-dihydro-2H-isoindol-2-yl)-1H-benzimidazol-2-yl)phenoxy)acetamide] | 1211 | —
O=C(COc1ccc(-c2nc3cc(N4Cc5cc(N6CCCCC6)ccc5C4=O)ccc3[nH]2)cc1)NC1CC1 [Example 25, N-cyclopropyl-2-(4-(5-(1-oxo-5-(piperidin-1-yl)-1,3-dihydro-2H-isoindol-2-yl)-1H-benzimidazol-2-yl)phenoxy)acetamide] | 1260 | 900
CCOc1ccc(-c2nc3cc(N4Cc5cc(N6CCCCC6)ccc5C4=O)ccc3[nH]2)cc1 [Example 65, 2-(2-(4-ethoxyphenyl)-1H-benzimidazol-5-yl)-5-(piperidin-1-yl)isoindolin-1-one] | 1245 | 836
O=C(COc1ccc(-c2nc3cc(N4Cc5cc(N6CCCCC6)ccc5C4=O)ccc3[nH]2)cc1)NCC1CC1 [Example 27, N-(cyclopropylmethyl)-2-(4-(5-(1-oxo-5-(piperidin-1-yl)-1,3-dihydro-2H-isoindol-2-yl)-1H-benzimidazol-2-yl)phenoxy)acetamide] | 1821 | —
O=C1c2ccc(N3CCCCC3)cc2CN1c1ccc2[nH]c(C3CCCCC3)nc2c1 [Example 44, 2-(2-cyclohexyl-1H-benzimidazol-5-yl)-5-(piperidin-1-yl)isoindolin-1-one] | 1071 | 1141
COc1ccc(-c2nc3cc(N4Cc5ccccc5C4=O)ccc3[nH]2)cc1 [Example 7, 2-(2-(4-methoxyphenyl)-1H-benzimidazol-5-yl)isoindolin-1-one] | 859 | 1631
O=C1c2ccc(N3CCCCC3)cc2CN1c1ccc2[nH]c(-c3cccs3)nc2c1 [Example 41, 5-(piperidin-1-yl)-2-(2-(2-thienyl)-1H-benzimidazol-5-yl)isoindolin-1-one] | 1107 | 1571
O=C1c2ccc(N3CCOCC3)cc2CN1c1ccc2[nH]c(-c3ccc(Cl)cc3)nc2c1 [Example 56, 2-(2-(4-chlorophenyl)-1H-benzimidazol-5-yl)-5-(morpholin-4-yl)isoindolin-1-one] | 1185 | 897
COc1ccc(-c2nc3cc(N4Cc5cc(Br)ccc5C4=O)ccc3[nH]2)cc1 [Example 70, 5-bromo-2-(2-(4-methoxyphenyl)-1H-benzimidazol-5-yl)isoindolin-1-one] | 998 | 4335
O=C1c2ccc(N3CCOCC3)cc2CN1c1ccc2[nH]c(-c3ccccc3)nc2c1 [Example 73, 5-(morpholin-4-yl)-2-(2-phenyl-1H-benzimidazol-5-yl)isoindolin-1-one] | 1231 | 922
COC(=O)COc1ccc(-c2nc3cc(N4Cc5cc(N6CCOCC6)ccc5C4=O)ccc3[nH]2)cc1 [Example 50, methyl (4-(5-(5-(morpholin-4-yl)-1-oxo-1,3-dihydro-2H-isoindol-2-yl)-1H-benzimidazol-2-yl)phenoxy)acetate] | 1126 | 1717
CC1(O)CCN(C(=O)COc2ccc(-c3nc4cc(N5Cc6cc(N7CCCCC7)ccc6C5=O)ccc4[nH]3)cc2)CC1 [Example 15, 2-(2-(4-(2-(4-hydroxy-4-methylpiperidin-1-yl)-2-oxoethoxy)phenyl)-1H-benzimidazol-5-yl)-5-(piperidin-1-yl)isoindolin-1-one] | 1701 | 2697
O=C1c2ccc(N3CCCCC3)cc2CN1c1ccc2[nH]c(-c3ccc(OCc4ccccc4)cc3)nc2c1 [Example 3, 2-(2-(4-(benzyloxy)phenyl)-1H-benzimidazol-5-yl)-5-(piperidin-1-yl)isoindolin-1-one] | 933 | 1441
CN(C)C(=O)COc1ccc(-c2nc3cc(N4Cc5cc(N6CCOCC6)ccc5C4=O)ccc3[nH]2)cc1 [Example 38, N,N-dimethyl-2-(4-(5-(5-(morpholin-4-yl)-1-oxo-1,3-dihydro-2H-isoindol-2-yl)-1H-benzimidazol-2-yl)phenoxy)acetamide] | 1633 | —
O=C(COc1ccc(-c2nc3cc(N4Cc5cc(N6CCCCC6)ccc5C4=O)ccc3[nH]2)cc1)Nc1ccccc1F [Example 20, N-(2-fluorophenyl)-2-(4-(5-(1-oxo-5-(piperidin-1-yl)-1,3-dihydro-2H-isoindol-2-yl)-1H-benzimidazol-2-yl)phenoxy)acetamide] | 1685 | 
O=C1c2ccc(N3CCCCC3)cc2CN1c1ccc2[nH]c(-c3ccno3)nc2c1 [Example 40, 2-(2-(1,2-oxazol-5-yl)-1H-benzimidazol-5-yl)-5-(piperidin-1-yl)isoindolin-1-one] | 1089 | 1327
